# Source: patent US20220073525A1, “COMPOSITIONS FOR INHIBITING UBIQUITIN SPECIFIC PROTEASE 1” (FORMA Therapeutics, Inc., priority 2019, published 2022)
# Target: USP1 (Homo sapiens, UniProt O94782)
# Assay: Biochemical Assay for USP1 Inhibition (Ub-Rho 110 fluorescence)
# Conditions: Table 5; 30 min preincubation, Enzyme 0.025 nM, Substrate Ub-Rho 110 25 nM; read-out: IC50 (μm)
# Description: The assay was performed in a final volume of 6 μL in assay buffer containing 20 mM Tris-HCl pH 8.0, (1 M Tris-HCl, pH 8.0 solution; Corning 46-031-CM), 1 mM GSH (L-glutathione reduced, Sigma-Aldrich, G4251-100G), 0.03% BGG (0.22 μM filtered, Sigma, G7516-25G), and 0.01% Triton X-100 (Sigma, T9284-10L). Nanoliter quantities of 10-point, 3-fold serial dilution in DMSO were pre-dispensed into 1536 assay plates (Corning, #3724BC) for a final test concentration of 25 μM to 1.3 nM, top to lowest dose, respectively. Concentration and incubation times were optimized for the maximal signal-to-background while maintaining initial velocity conditions at a fixed substrate concentration (<<Km). 3 μL of 2× Enzyme was added to assay plates (pre-stamped with compound), preincubated for 30 min, and then treated with 3 μL of 2× Substrate (Ub-Rho 110, UbiQ-126). Final concentrations of Enzyme and Substrate are 0.025 nM and 25 nM, respectively. Plates were read using a kinetic protocol continuously for 11 min on the Envision (Perkin Elmer) or PheraSTAR (BMG), excitation at 485 nm and emission at 535 nm or excitation at 520 nm and emission at 590 nm. For all assay formats, data were reported as percent inhibition compared with control wells based on the following equation: % inh=100*([…]), where FLU=measured Fluorescence, AveLow=average Fluorescence of no enzyme control (n=32), and AveHigh=average Fluorescence of DMSO control (n=32). IC50 values were determined by curve fitting of the standard 4 parameter logistic fitting algorithm included in the Activity Base software package: TDBS XE Designer Model205. Data is fitted using the Levenburg Marquardt algorithm.
# In Table 5, absolute stereochemistry has not been determined for some Compounds. Accordingly, assignment ofany Compounds as the “R” or “S” stereoisomer is arbitrary, unless otherwise noted. In some cases, Compounds are labeled with “1st eluting isomer”, “2nd eluting isomer”, etc. based on the purification method used to separate the stereoisomers.
# Chain of USP1 (O94782 whole entry): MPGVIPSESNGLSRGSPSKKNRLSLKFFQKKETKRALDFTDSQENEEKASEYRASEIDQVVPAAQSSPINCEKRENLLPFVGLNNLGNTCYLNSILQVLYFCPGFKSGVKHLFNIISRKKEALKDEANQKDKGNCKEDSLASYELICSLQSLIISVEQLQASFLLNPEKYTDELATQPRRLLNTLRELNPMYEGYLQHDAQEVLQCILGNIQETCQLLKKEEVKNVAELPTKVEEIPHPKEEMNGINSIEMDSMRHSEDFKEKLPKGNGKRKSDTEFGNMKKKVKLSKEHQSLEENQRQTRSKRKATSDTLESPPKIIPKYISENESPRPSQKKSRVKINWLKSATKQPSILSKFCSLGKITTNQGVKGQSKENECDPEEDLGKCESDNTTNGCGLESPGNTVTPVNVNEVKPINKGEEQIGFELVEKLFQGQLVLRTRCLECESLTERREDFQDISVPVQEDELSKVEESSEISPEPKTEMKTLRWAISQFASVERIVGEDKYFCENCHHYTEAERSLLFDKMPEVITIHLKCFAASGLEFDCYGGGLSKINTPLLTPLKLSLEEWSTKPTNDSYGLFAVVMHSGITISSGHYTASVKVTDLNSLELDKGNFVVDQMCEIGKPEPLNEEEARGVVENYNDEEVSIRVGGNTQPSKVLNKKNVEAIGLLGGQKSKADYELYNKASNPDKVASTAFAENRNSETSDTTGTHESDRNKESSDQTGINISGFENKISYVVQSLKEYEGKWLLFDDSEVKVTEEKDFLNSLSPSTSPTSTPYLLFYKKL
# Chain of USP1 (Q8TAF3 whole entry partner): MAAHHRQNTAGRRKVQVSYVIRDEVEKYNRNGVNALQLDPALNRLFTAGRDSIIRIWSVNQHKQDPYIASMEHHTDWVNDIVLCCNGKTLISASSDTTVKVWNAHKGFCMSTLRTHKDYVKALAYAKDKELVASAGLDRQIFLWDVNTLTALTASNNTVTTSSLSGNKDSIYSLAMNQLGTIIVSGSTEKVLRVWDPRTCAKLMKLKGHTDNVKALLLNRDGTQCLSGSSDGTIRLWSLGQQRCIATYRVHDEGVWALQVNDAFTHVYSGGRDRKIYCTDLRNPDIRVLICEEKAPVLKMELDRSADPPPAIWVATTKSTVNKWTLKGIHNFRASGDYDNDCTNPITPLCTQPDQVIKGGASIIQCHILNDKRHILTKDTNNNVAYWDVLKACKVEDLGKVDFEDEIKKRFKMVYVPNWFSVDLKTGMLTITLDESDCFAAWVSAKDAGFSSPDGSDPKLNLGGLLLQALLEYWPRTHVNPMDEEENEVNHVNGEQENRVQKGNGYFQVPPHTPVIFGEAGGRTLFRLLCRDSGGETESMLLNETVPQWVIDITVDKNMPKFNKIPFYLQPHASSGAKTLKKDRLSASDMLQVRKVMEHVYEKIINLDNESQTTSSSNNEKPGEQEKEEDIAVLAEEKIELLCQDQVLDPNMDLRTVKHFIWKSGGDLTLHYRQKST
row,Structure (SMILES),IC50 [nM]
1,"Cc1nc(-c2cccnc2C(C)C)c2n1CC(C)N(c1ccc(-c3nc(C(F)(F)F)cn3C)cc1)C2 (single isomer, unassigned) [Compound 8-1, 3-[3,6-dimethyl-7-{4-[1-methyl-4-(trifluoromethyl)-1H-imidazol-2-yl]phenyl}-5H,6H,7H,8H-imidazo[1,5-a]pyrazin-1-yl]-2-(propan-2-yl)pyridine]",≤ 1000
2,"Cc1nc(-c2cccnc2OC(F)F)c2n1CC(C)N(c1ccc(-c3nc(C(F)(F)F)cn3C)cc1)C2 (single isomer, unassigned) [Compound 27-1, 2-(difluoromethoxy)-3-[-3,6-dimethyl-7-{4-[1-methyl-4-(trifluoromethyl)-1H-imidazol-2-yl]phenyl}-5H,6H,7H,8H-imidazo[1,5-a]pyrazin-1-yl]pyridine]",≤ 1000
3,"Cc1nc(-c2cccnc2OC(F)F)c2n1CCN(c1ccc(-c3nc(C(F)(F)F)cn3C)cc1)C2C (single isomer, unassigned) [Compound 52-1, 2-(difluoromethoxy)-3-[-3,8-dimethyl-7-{4-[1-methyl-4-(trifluoromethyl)-1H-imidazol-2-yl]phenyl}-5H,6H,7H,8H-imidazo[1,5-a]pyrazin-1-yl]pyridine]",≤ 1000
4,"Cc1nc(-c2cccnc2OC(F)F)c2n1CCN(c1ccc(-c3nc(C(F)(F)F)cn3C)cc1)C2C (single isomer, unassigned) [Compound 52-2, 2-(difluoromethoxy)-3-[-3,8-dimethyl-7-{4-[1-methyl-4-(trifluoromethyl)-1H-imidazol-2-yl]phenyl}-5H,6H,7H,8H-imidazo[1,5-a]pyrazin-1-yl]pyridine]",1000 to 10000
5,"Cc1nc(-c2cccnc2C(C)C)c2n1C(C)CN(c1ccc(-c3nc(C(F)(F)F)cn3C)cc1)C2 (single isomer, unassigned) [Compound 72-1, 3-[-3,5-dimethyl-7-{4-[1-methyl-4-(trifluoromethyl)-1H-imidazol-2-yl]phenyl}-5H,6H,7H,8H-imidazo[1,5-a]pyrazin-1-yl]-2-(propan-2-yl)pyridine]",≤ 1000
6,"Cc1nc(-c2cccnc2C(C)C)c2n1CCN(c1ccc(-c3nc(C(F)(F)F)cn3C)cc1)C2 [Compound 1, 1-(2-isopropylpyridin-3-yl)-3-methyl-7-(4-(1-methyl-4-(trifluoromethyl)-1H-imidazol-2-yl)phenyl)-5,6,7,8-tetrahydroimidazo[1,5-a]pyrazine]",≤ 1000
7,"CC(C)c1ncccc1-c1nc(C(F)(F)F)n2c1CN(c1ccc(-c3nc(C(F)(F)F)cn3C)cc1)CC2 [Compound 2, 3-(7-{4-[1-methyl-4-(trifluoromethyl)-1H-imidazol-2-yl]phenyl}-3-(trifluoromethyl)-5H,6H,7H,8H-imidazo[1,5-a]pyrazin-1-yl)-2-(propan-2-yl)pyridine]",≤ 1000
8,"Cc1nc(-c2ccccc2C(C)C)c2n1CCN(c1ccc(-c3nc(C(F)(F)F)cn3C)cc1)C2 [Compound 3, 1-methyl-2-(4-{3-methyl-1-[2-(propan-2-yl)phenyl]-5H,6H,7H,8H-imidazo[1,5-a]pyrazin-7-yl}phenyl)-4-(trifluoromethyl)-1H-imidazole]",≤ 1000
9,"CC(C)c1ncccc1-c1ncn2c1CN(c1ccc(-c3nc(C(F)(F)F)cn3C)cc1)CC2 [Compound 4, 3-(7-{4-[1-methyl-4-(trifluoromethyl)-1H-imidazol-2-yl]phenyl}-5H,6H,7H,8H-imidazo[1,5-a]pyrazin-1-yl)-2-(propan-2-yl)pyridine]",≤ 1000
10,"Cc1nc(-c2cccnc2C(C)C)c2n1CCN(c1ccc(F)cc1)C2 [Compound 5, 3-[7-(4-fluorophenyl)-3-methyl-5H,6H,7H,8H-imidazo[1,5-a]pyrazin-1-yl]-2-(propan-2-yl)pyridine]",> 25000
11,"Cc1nc(-c2cccnc2C(C)C)c2n1CCN(c1ccc(C#N)cc1)C2 [Compound 6, 4-{3-methyl-1-[2-(propan-2-yl)pyridin-3-yl]-5H,6H,7H,8H-imidazo[1,5-a]pyrazin-7-yl}benzonitrile]",> 25000
12,"Cc1nc(-c2cccnc2C(C)C)c2n1CCN(c1ccc(-c3nc(C(F)(F)F)cn3C)cc1)C2C (stereo not shown) [Compound 7, 3-(3,8-dimethyl-7-{4-[1-methyl-4-(trifluoromethyl)-1H-imidazol-2-yl]phenyl}-5H,6H,7H,8H-imidazo[1,5-a]pyrazin-1-yl)-2-(propan-2-yl)pyridine]",≤ 1000
13,"Cc1nc(-c2cccnc2C(C)C)c2n1CCN(c1ccc(-n3cccn3)cc1)C2 [Compound 9, 3-{3-methyl-7-[4-(1H-pyrazol-1-yl)phenyl]-5H,6H,7H,8H-imidazo[1,5-a]pyrazin-1-yl}-2-(propan-2-yl)pyridine]",1000 to 10000
14,"Cc1nc(-c2cccnc2C(C)C)c2n1CCN(c1ncccn1)C2 [Compound 10, 2-{3-methyl-1-[2-(propan-2-yl)pyridin-3-yl]-5H,6H,7H,8H-imidazo[1,5-a]pyrazin-7-yl}pyrimidine]",> 25000
15,"Cc1nc(-c2cccnc2C(C)C)c2n1CCN(c1cnccn1)C2 [Compound 11, 2-{3-methyl-1-[2-(propan-2-yl)pyridin-3-yl]-5H,6H,7H,8H-imidazo[1,5-a]pyrazin-7-yl}pyrazine]",> 25000
16,"Cc1nc(-c2cccnc2C(C)C)c2n1CCN(c1cccc3[nH]ccc13)C2 [Compound 12, 4-{3-methyl-1-[2-(propan-2-yl)pyridin-3-yl]-5H,6H,7H,8H-imidazo[1,5-a]pyrazin-7-yl}-1H-indole]",> 25000
17,"Cc1nc(-c2cccnc2C(C)C)c2n1CCN(c1ccc(-c3nc(C(F)(F)F)cn3C)cn1)C2 [Compound 13, 2-{3-methyl-1-[2-(propan-2-yl)pyridin-3-yl]-5H,6H,7H,8H-imidazo[1,5-a]pyrazin-7-yl}-5-[1-methyl-4-(trifluoromethyl)-1H-imidazol-2-yl]pyridine]",≤ 1000
18,"Cc1nc(-c2cccnc2C(C)C)c2n1CCN(c1ccc(-c3nccn3C)cc1)C2 [Compound 14, 3-{3-methyl-7-[4-(1-methyl-1H-imidazol-2-yl)phenyl]-5H,6H,7H,8H-imidazo[1,5-a]pyrazin-1-yl}-2-(propan-2-yl)pyridine]",1000 to 10000
19,"Cc1nc(-c2cccnc2OC(F)F)c2n1CCN(c1ccc(-c3nc(C(F)(F)F)cn3C)cc1)C2 [Compound 15, 2-(difluoromethoxy)-3-(3-methyl-7-{4-[1-methyl-4-(trifluoromethyl)-1H-imidazol-2-yl]phenyl}-5H,6H,7H,8H-imidazo[1,5-a]pyrazin-1-yl)pyridine]",≤ 1000
20,"Cc1nc(-c2cccnc2OCC(F)(F)F)c2n1CCN(c1ccc(-c3nc(C(F)(F)F)cn3C)cc1)C2 [Compound 16, 3-(3-methyl-7-{4-[1-methyl-4-(trifluoromethyl)-1H-imidazol-2-yl]phenyl}-5H,6H,7H,8H-imidazo[1,5-a)pyrazin-1-yl)-2-(2,2,2-trifluoroethoxy)pyridine]",≤ 1000
21,"COc1ccc(N2CCn3c(C)nc(-c4cccnc4C(C)C)c3C2)cc1 [Compound 17, 3-[7-(4-methoxyphenyl)-3-methyl-5H,6H,7H,8H-imidazo[1,5-a]pyrazin-1-yl]-2-(propan-2-yl)pyridine]",> 25000
22,"Cc1nc(-c2cccnc2C(C)C)c2n1CCN(c1ccc(N(C)C)cc1)C2 [Compound 18, N,N-dimethyl-4-{3-methyl-1-[2-(propan-2-yl)pyridin-3-yl]-5H,6H,7H,8H-imidazo[1,5-a]pyrazin-7-yl}aniline]",> 25000
